Test results: ChEMBL document CHEMBL1147517, “Potent and selective inhibitors of bacterial methionyl tRNA synthetase derived from an oxazolone-dipeptide scaffold” (Bioorg Med Chem Lett, 2004); call rule not given here

Experiments:
[1] = target: T1, Methionine--tRNA ligase, cytoplasmic (Homo sapiens, UniProt P56192); assay: Inhibition of human methionyl-tRNA synthetase (fMetRS)
T1 sequence (P56192 whole entry): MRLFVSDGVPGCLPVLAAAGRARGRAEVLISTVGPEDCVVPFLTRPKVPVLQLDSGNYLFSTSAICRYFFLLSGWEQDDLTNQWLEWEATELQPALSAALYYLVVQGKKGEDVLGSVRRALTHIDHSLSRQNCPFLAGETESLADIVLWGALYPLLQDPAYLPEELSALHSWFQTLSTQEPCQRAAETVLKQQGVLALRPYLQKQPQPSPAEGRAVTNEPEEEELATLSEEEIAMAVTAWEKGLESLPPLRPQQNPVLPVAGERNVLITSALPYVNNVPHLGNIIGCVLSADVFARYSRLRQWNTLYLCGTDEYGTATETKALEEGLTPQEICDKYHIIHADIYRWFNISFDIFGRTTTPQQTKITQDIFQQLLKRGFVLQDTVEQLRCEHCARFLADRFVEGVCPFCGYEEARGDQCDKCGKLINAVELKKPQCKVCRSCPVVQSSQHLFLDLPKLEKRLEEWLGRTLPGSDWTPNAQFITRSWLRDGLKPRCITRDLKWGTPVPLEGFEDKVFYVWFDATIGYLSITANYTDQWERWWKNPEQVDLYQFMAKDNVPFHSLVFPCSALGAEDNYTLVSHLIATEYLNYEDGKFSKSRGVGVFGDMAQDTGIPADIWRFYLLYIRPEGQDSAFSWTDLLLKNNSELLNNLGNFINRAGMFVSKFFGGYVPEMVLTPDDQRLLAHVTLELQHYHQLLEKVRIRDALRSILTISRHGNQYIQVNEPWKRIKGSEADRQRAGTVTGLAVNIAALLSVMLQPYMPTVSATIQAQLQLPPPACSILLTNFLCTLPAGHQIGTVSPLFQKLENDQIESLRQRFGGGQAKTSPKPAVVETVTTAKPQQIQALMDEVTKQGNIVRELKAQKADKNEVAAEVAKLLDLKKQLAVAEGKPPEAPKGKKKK

[2] = target: T2, Methionine--tRNA ligase, cytoplasmic (Homo sapiens) (UniProt P56192); assay: Inhibition of human methionyl-tRNA synthetase (fMetRS) at the concentration of 10 uM
T2 sequence (whole entry): T1 sequence (P56192 whole entry)

[3] = tested on: Methionine--tRNA ligase (Staphylococcus aureus); assay: Inhibition of Staphylococcus aureus methionyl-tRNA synthetase (SaMetRS) at the concentration of 10 uM
[4] = tested on: Methionine--tRNA ligase (Enterococcus faecalis); assay: Inhibition of Enterococci faecalis methionyl-tRNA synthetase (EfMetRS) at the concentration of 10 uM
[5] = tested on: Methionine--tRNA ligase (Enterococcus faecalis); assay: Inhibition of Enterococci faecalis methionyl-tRNA synthetase (EfMetRS); Inactive

Row | Compound | IC50 [1] [µM] | inhibition [2] [%] | inhibition [3] [%] | inhibition [4] [%] | IC50 [5]
1 | CC/C(=C1/N=C(c2ccc(Br)cc2)OC1=O)N1CCC[C@H]1C(=O)N[C@@H](Cc1ccc(O)cc1)C(N)=O | > 100 |  |  |  | 
2 | CCC/C(=C1/N=C(c2ccc(Br)cc2)OC1=O)N1CCC[C@H]1C(=O)N[C@@H](Cc1ccc(O)cc1)C(N)=O | > 100 |  |  |  | 
3 | NC(=O)[C@H](Cc1ccc(O)cc1)NC(=O)C1CCCCN1/C=C1\N=C(c2ccc(Cl)cc2Cl)OC1=O (some centres undefined) |  | 88 | 73 | 60 | 
4 | NC(=O)[C@H](Cc1ccc(O)cc1)NC(=O)C1CCN(/C=C2\N=C(c3ccc(Br)cc3)OC2=O)CC1 |  | 6 | 1 | 7 | 
5 | NC(=O)[C@H](Cc1ccc(O)cc1)NC(=O)[C@@H]1CCCN1/C=C1\N=C(c2ccc(Br)cc2)OC1=O |  | 5 |  |  | 
6 | CCC/C(=C1/N=C(c2ccc(Br)cc2)OC1=O)N1CC[C@H]1C(=O)N[C@@H](Cc1ccc(O)cc1)C(N)=O | > 100 |  |  |  | 
7 | NC(=O)[C@H](Cc1ccc(O)cc1)NC(=O)C1CCCCN1/C=C1\N=C(c2ccc(Br)cc2)OC1=O (some centres undefined) |  | 19 | 55 | 7 | 
8 | NC(=O)[C@H](Cc1ccc(O)cc1)NC(=O)C1CCN(/C=C2\N=C(c3ccc(Cl)cc3Cl)OC2=O)CC1 |  | 5 | 3 | 5 | 
9 | NC(=O)[C@H](Cc1ccc(O)cc1)NC(=O)C1CCCN(/C=C2\N=C(c3ccc(Cl)cc3Cl)OC2=O)C1 (some centres undefined) |  | 20 | 43 | 2 | 
10 | NC(=O)[C@H](Cc1ccc(O)cc1)NC(=O)C1CCCN(/C=C2\N=C(c3ccc(Br)cc3)OC2=O)C1 (some centres undefined) |  | 23 | 39 |  | Not Active
11 | NC(=O)[C@H](Cc1ccc(O)cc1)NC(=O)[C@@H]1CCN1/C=C1\N=C(c2ccc(Br)cc2)OC1=O | > 100 |  |  |  | 
12 | NC(=O)[C@H](Cc1ccc(O)cc1)NC(=O)[C@@H]1CCCN1/C=C1\N=C(c2ccc(Cl)cc2Cl)OC1=O | > 100 |  |  |  | 
